According to the supplement of paper PMC9663587:
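Further: breast cancer cell lines in 384-well plates, stained with Hoechst plus LIVE/DEAD far red dye and imaged, cells above an LDR intensity threshold counted dead, Hoechst-negative corpses included.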

The cell lines below were run with CCc1cnn2c(NCc3ccc[n+]([O-])c3)cc(N3CCCC[C@H]3CCO)nc12 (assay: increase in dead-cell fraction, 72 h; higher = more death). Conditions: 0.0001 µM.
For 184A1, the “increase in dead-cell fraction” value was -0.0039. In the case of AU565, the “increase in dead-cell fraction” value is reported as 0.0029. With BT20 the “increase in dead-cell fraction” value was 0.0075. With HCC1428 the “increase in dead-cell fraction” value was 0.0044. HCC1500 was tested, and the “increase in dead-cell fraction” value was 0.0119. With MDAMB157 the “increase in dead-cell fraction” value was 0.

Same assay, conditions: 0.0003162 µM
In the case of 184A1, the “increase in dead-cell fraction” value is reported as -0.0006. For AU565, the “increase in dead-cell fraction” value was 0.0001. For BT20, the “increase in dead-cell fraction” value was -0.0076. With HCC1428 the “increase in dead-cell fraction” value was 0.0006. HCC1500 was tested, and the “increase in dead-cell fraction” value was -0.0049. In the case of MDAMB157, the “increase in dead-cell fraction” value is reported as -0.0024.

Same assay, conditions: 0.001 µM
With 184A1 the “increase in dead-cell fraction” value was -0.0027. For AU565, the “increase in dead-cell fraction” value was 0.0027. For BT20, the “increase in dead-cell fraction” value was -0.0014. For HCC1428, the “increase in dead-cell fraction” value was 0.0016. In the case of HCC1500, the “increase in dead-cell fraction” value is reported as 0.0055. With MDAMB157 the “increase in dead-cell fraction” value was 0.0008.

Same assay, conditions: 0.003162 µM
With 184A1 the “increase in dead-cell fraction” value was -0.0019. For AU565, the “increase in dead-cell fraction” value was 0.0033. With BT20 the “increase in dead-cell fraction” value was -0.0106. In the case of HCC1428, the “increase in dead-cell fraction” value is reported as -0.0135. For HCC1500, the “increase in dead-cell fraction” value was 0.0001. In the case of MDAMB157, the “increase in dead-cell fraction” value is reported as 0.0027.

Same assay, conditions: 0.01 µM
In the case of 184A1, the “increase in dead-cell fraction” value is reported as 0.0164. With AU565 the “increase in dead-cell fraction” value was 0.0437. In the case of BT20, the “increase in dead-cell fraction” value is reported as 0.0127. In the case of HCC1428, the “increase in dead-cell fraction” value is reported as 0.0043. HCC1500 was tested, and the “increase in dead-cell fraction” value was 0.0467. For MDAMB157, the “increase in dead-cell fraction” value was 0.028.

Same assay, conditions: 0.03162 µM
In the case of 184A1, the “increase in dead-cell fraction” value is reported as 0.277. With AU565 the “increase in dead-cell fraction” value was 0.247. For BT20, the “increase in dead-cell fraction” value was 0.456. In the case of HCC1428, the “increase in dead-cell fraction” value is reported as 0.283. HCC1500 was tested, and the “increase in dead-cell fraction” value was 0.285. For MDAMB157, the “increase in dead-cell fraction” value was 0.41.

Same assay, conditions: 0.1 µM
With 184A1 the “increase in dead-cell fraction” value was 0.127. In the case of AU565, the “increase in dead-cell fraction” value is reported as 0.346. In the case of BT20, the “increase in dead-cell fraction” value is reported as 0.789. HCC1428 was tested, and the “increase in dead-cell fraction” value was 0.562. In the case of HCC1500, the “increase in dead-cell fraction” value is reported as 0.499. For MDAMB157, the “increase in dead-cell fraction” value was 0.781.

Same assay, conditions: 0.3162 µM
For 184A1, the “increase in dead-cell fraction” value was 0.363. With AU565 the “increase in dead-cell fraction” value was 0.315. For BT20, the “increase in dead-cell fraction” value was 0.803. With HCC1428 the “increase in dead-cell fraction” value was 0.64. HCC1500 was tested, and the “increase in dead-cell fraction” value was 0.456. For MDAMB157, the “increase in dead-cell fraction” value was 0.834.

Same assay, conditions: 1 µM
184A1 was tested, and the “increase in dead-cell fraction” value was 0.368. AU565 was tested, and the “increase in dead-cell fraction” value was 0.345. BT20 was tested, and the “increase in dead-cell fraction” value was 0.827. With HCC1428 the “increase in dead-cell fraction” value was 0.687. For HCC1500, the “increase in dead-cell fraction” value was 0.476. MDAMB157 was tested, and the “increase in dead-cell fraction” value was 0.851.

The cell lines below were run with CC(=O)c1c(C)c2cnc(Nc3ccc(N4CCN(CCOCCOCCOCCNC(=O)COc5cccc6c5C(=O)N(C5CCC(=O)NC5=O)C6=O)CC4)cn3)nc2n(C2CCCC2)c1=O [BSJ-03-123] in the same assay as above. Conditions: 0.001 µM.
For 184A1, the “increase in dead-cell fraction” value was 0.0061. AU565 was tested, and the “increase in dead-cell fraction” value was 0.0012. For BT20, the “increase in dead-cell fraction” value was -0.0015. In the case of MCF10A (GM), the “increase in dead-cell fraction” value is reported as 0.0019. PDX1206 was tested, and the “increase in dead-cell fraction” value was -0.0047.

Same assay, conditions: 0.003162 µM
184A1 was tested, and the “increase in dead-cell fraction” value was 0.0101. AU565 was tested, and the “increase in dead-cell fraction” value was -0.0066. With BT20 the “increase in dead-cell fraction” value was 0.0071. With MCF10A (GM) the “increase in dead-cell fraction” value was -0.0004. With PDX1206 the “increase in dead-cell fraction” value was -0.004.

Same assay, conditions: 0.01 µM
For 184A1, the “increase in dead-cell fraction” value was 0.0181. In the case of AU565, the “increase in dead-cell fraction” value is reported as 0.0069. In the case of BT20, the “increase in dead-cell fraction” value is reported as 0.0034. In the case of MCF10A (GM), the “increase in dead-cell fraction” value is reported as 0.0026. With PDX1206 the “increase in dead-cell fraction” value was -0.0083.

Same assay, conditions: 0.03162 µM
For 184A1, the “increase in dead-cell fraction” value was 0.0097. In the case of AU565, the “increase in dead-cell fraction” value is reported as -0.0059. In the case of BT20, the “increase in dead-cell fraction” value is reported as 0.0088.
